Measurements from patent US20180087079A1, “METHODS OF USING CELL-CYCLE INHIBITORS TO MODULATE ONE OR MORE PROPERTIES OF A CELL CULTURE” (AMGEN INC., priority 2013, published 2018).
Values belong to the compound of their own block, whether it stands above or below them.

Assays:
[1] = system: transfected CHO cells expressing recombinant human monoclonal antibody (cell line 1); experiment: 24-deep well culture, cell line 1: VCD, viability, titer, qP; assay type: cell-based, Chinese hamster; settings: for Titer / VCD / Viability / qP: Cell Line 1; for effect on viability / growth arrest: summary of Table 2
Experimental: Transfected CHO cells expressing a recombinant human monoclonal antibody (mAb) are cultured in 24-deep well plates with seeding density at 1×10^7/mL for five days. At certain time periods, samples of the cultures are taken and evaluated for viable cell density (VCD; expressed in 10^6 cells/mL); percent viability (as determined by trypan blue exclusion); titer of recombinant protein (expressed in grams of protein per liter of culture, or g/L, as determined by Protein A affinity HPLC); qP, or specific productivity (expressed in picograms of recombinant protein per cell per day, or pg/c/d), the presence or absence of high molecular weight substances (usually an indicator of protein aggregation; expressed as % of the total protein); and the relative percentage of Mannose 5, a major intermediate glyco-form that attaches to N297 of the mAb. N-linked glycosylation has an impact on the tertiary structure of the antibody and may affect Fc mediated antibody effector functions. The majority of the human Fc glycans are complex biantennary structures with galactose as the prevalent terminal sugar. Immature glyco-forms, such as high-mannose glycol-forms (Man5-9), are of concern due to potential higher plasma clearance rate (as compared to the clearance rate of complex glycan linked mAbs).
Compounds are further evaluated essentially as described in Example 2 herein. Briefly, transfected CHO cells expressing recombinant human monoclonal antibody (mAb; two different cell lines expressing two different mAb, referred to as cell line 1 and cell line 2) are cultured in 24-deep well plates in the presence or absence of the compounds. At specified time points, samples of the cultures are taken and evaluated for viable cell density (VCD; expressed in 10^6 cells/mL); percent viability (as determined by any method known in the art); titer of recombinant protein (expressed in grams of protein per liter of culture, or g/L, as determined by Protein A affinity HPLC); qP, or specific productivity (expressed in picograms of recombinant protein per cell per day, or pg/c/d). Additional parameters measure include the presence or absence of high molecular weight substances (usually an indicator of protein aggregation; expressed as % of the total protein); and the relative percentage of Mannose 5. For comparison purposes, Compounds A and B, which had been previously tested, were tested again.

Colo205 = experiment: [14C]-thymidine incorporation cell proliferation inhibition assay; assay type: cell-based; settings: Homo sapiens, COLO 205, 72 hour incubation
Experimental: The cell proliferation inhibition potency of the cell cycle inhibitors was determined by using a [^14C]-thymidine incorporation assay. Exponentially growing cells (Colo205) were seeded in a 96-well Cytostar T plate (GE Healthcare Biosciences) at a density of 5×10^3 cells/well and incubated overnight. Serially diluted compounds and 0.1 μCi of [^14C]-thymidine (GE Healthcare Biosciences) were added to each well on the following day. After 72 hour incubation, isotope incorporation was determined with a β plate counter (Wallac). IC50 values of the compounds in the above assays were determined by non-linear regression analysis using Prism (GraphPad Software).

CDK4/Cyclin D1 = molecular target: T1, CDK4/Cyclin D1 (Homo sapiens, UniProt P11802); experiment: CDK4 filtration kinase assay; assay type: biochemical; settings: CDK4/Cyclin D1, Rb fragment substrate, [33P]-ATP
T1 construct: purchased Cell Signaling Technology
Experimental: The CDK4 inhibitory activity of the cell cycle inhibitors was determined with a filtration kinase assay. The compounds, kinase and substrate diluted in the kinase buffer (20 mM Tris, pH7.4, 50 mM NaCl, 1 mM DTT, 0.1% BSA) were sequentially added to a 96-well Multiscreen HTS filtration plate (Millipore). The final 100 μL reaction mixture in each well contained 0.3 μg of CDK4/Cyclin D1 (Cell Signaling Technology), 1 μg of Rb fragment (aa773-928, Millipore) for the CDK4 assay and 1 μCi of [^33P]-ATP. The mixture was incubated at room temperature for 1 hour. The proteins in the reaction were then precipitated and washed with cold TCA solution using an aspiration/filtration vacuum system. The plates were dried at room temperature, and the retained radioactivity was measured by scintillation counting. IC50 values of the compounds in the above assays were determined by non-linear regression analysis using Prism (GraphPad Software).

T1 sequence (P11802 whole entry, species assumed, the tested form may be a part): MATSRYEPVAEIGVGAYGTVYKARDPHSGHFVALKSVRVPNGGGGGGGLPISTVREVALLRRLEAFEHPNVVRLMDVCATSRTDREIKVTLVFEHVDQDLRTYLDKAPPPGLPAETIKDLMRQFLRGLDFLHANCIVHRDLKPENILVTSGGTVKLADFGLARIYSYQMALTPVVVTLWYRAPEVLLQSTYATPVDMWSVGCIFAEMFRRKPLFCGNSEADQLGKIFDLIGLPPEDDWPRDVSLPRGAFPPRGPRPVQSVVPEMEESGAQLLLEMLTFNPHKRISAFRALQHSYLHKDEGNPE
T1 sequence (P24385 whole entry partner, species assumed, the tested form may be a part): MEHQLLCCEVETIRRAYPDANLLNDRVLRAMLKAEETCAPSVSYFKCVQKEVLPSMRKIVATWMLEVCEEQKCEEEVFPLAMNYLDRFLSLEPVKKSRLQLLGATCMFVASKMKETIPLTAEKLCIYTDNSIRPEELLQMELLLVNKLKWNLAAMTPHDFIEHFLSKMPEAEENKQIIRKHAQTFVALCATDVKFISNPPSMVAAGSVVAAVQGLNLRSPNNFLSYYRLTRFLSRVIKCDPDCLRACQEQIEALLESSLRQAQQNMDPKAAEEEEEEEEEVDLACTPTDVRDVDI

- IC50 (Colo205): 29.9 nM
- IC50 (CDK4/Cyclin D1): 1.86 nM
SMILES: CC1CCC(n2c3cnccc3c3cnc(Nc4ccc(N5CCNC(C)C5)nn4)nc32)CC1 (stereo not shown) [Compound D, 9-(4-methylcyclohexyl)-N-(6-(3-methylpiperazin-1-yl)pyridazin-3-yl)-9H-pyrido[4′,3′:4,5]pyrrolo[2,3-d]pyrimidin-2-amine]
- Titer ([1]; 2.5 microM, D 1): 0.49 g/L
- VCD ([1]; 2.5 microM, D 1): 11.85 e6/mL
- Viability ([1]; 2.5 microM, D 1): 95.50%
- qP ([1]; 2.5 microM, D 1): 41.37 pg/c/d
- Titer ([1]; 2.5 microM, D 2): 0.73 g/L
- VCD ([1]; 2.5 microM, D 2): 10.72 e6/mL
- Viability ([1]; 2.5 microM, D 2): 87.30%
- qP ([1]; 2.5 microM, D 2): 67.79 pg/c/d
- Titer ([1]; 2.5 microM, D 3): 0.98 g/L
- VCD ([1]; 2.5 microM, D 3): 11.11 e6/mL
- Viability ([1]; 2.5 microM, D 3): 84.83%
- qP ([1]; 2.5 microM, D 3): 87.94 pg/c/d
- Titer ([1]; 2.5 microM, D 4): 1.27 g/L
- VCD ([1]; 2.5 microM, D 4): 14.71 e6/mL
- Viability ([1]; 2.5 microM, D 4): 82.00%
- qP ([1]; 2.5 microM, D 4): 86.32 pg/c/d
- Titer ([1]; 5 microM, D 1): 0.49 g/L
- VCD ([1]; 5 microM, D 1): 11.76 e6/mL
- Viability ([1]; 5 microM, D 1): 95.92%
- qP ([1]; 5 microM, D 1): 41.95 pg/c/d
- Titer ([1]; 5 microM, D 2): 0.70 g/L
- VCD ([1]; 5 microM, D 2): 10.17 e6/mL
- Viability ([1]; 5 microM, D 2): 86.10%
- qP ([1]; 5 microM, D 2): 69.17 pg/c/d
- Titer ([1]; 5 microM, D 3): 0.87 g/L
- VCD ([1]; 5 microM, D 3): 9.71 e6/mL
- Viability ([1]; 5 microM, D 3): 79.43%
- qP ([1]; 5 microM, D 3): 89.92 pg/c/d
- Titer ([1]; 5 microM, D 4): 1.11 g/L
- VCD ([1]; 5 microM, D 4): 11.94 e6/mL
- Viability ([1]; 5 microM, D 4): 76.30%
- qP ([1]; 5 microM, D 4): 92.69 pg/c/d
- Titer ([1]; 10 microM, D 1): 0.49 g/L
- VCD ([1]; 10 microM, D 1): 11.35 e6/mL
- Viability ([1]; 10 microM, D 1): 94.69%
- qP ([1]; 10 microM, D 1): 43.16 pg/c/d
- Titer ([1]; 10 microM, D 2): 0.67 g/L
- VCD ([1]; 10 microM, D 2): 9.65 e6/mL
- Viability ([1]; 10 microM, D 2): 82.20%
- qP ([1]; 10 microM, D 2): 69.81 pg/c/d
- Titer ([1]; 10 microM, D 3): 0.86 g/L
- VCD ([1]; 10 microM, D 3): 9.31 e6/mL
- Viability ([1]; 10 microM, D 3): 76.69%
- qP ([1]; 10 microM, D 3): 92.01 pg/c/d
- Titer ([1]; 10 microM, D 4): 0.99 g/L
- VCD ([1]; 10 microM, D 4): 10.04 e6/mL
- Viability ([1]; 10 microM, D 4): 70.89%
- qP ([1]; 10 microM, D 4): 98.63 pg/c/d
- effect on viability [1]: minimal effects on viability
- growth arrest [1]: reasonably sustained growth arrest

- IC50 (Colo205): 38.4 nM
- IC50 (CDK4/Cyclin D1): 4.45 nM
SMILES: CC1CCC(n2c3cnccc3c3cnc(Nc4ccc(N5CCC6(CC5)CCS(=O)(=O)C6)nn4)nc32)CC1 (stereo not shown) [Compound E, 8-(6-((9-(4-methylcyclohexyl)-9H-pyrido[4′,3′:4,5]pyrrolo[2,3-d]pyrimidin-2-yl)amino)pyridazin-3-yl)-2-thia-8-azaspiro[4.5]decane 2,2-dioxide]
- Titer ([1]; 5 microM, D 1): 0.47 g/L
- VCD ([1]; 5 microM, D 1): 10.31 e6/mL
- Viability ([1]; 5 microM, D 1): 95.94%
- qP ([1]; 5 microM, D 1): 45.61 pg/c/d
- Titer ([1]; 5 microM, D 2): 0.67 g/L
- VCD ([1]; 5 microM, D 2): 9.37 e6/mL
- Viability ([1]; 5 microM, D 2): 85.43%
- qP ([1]; 5 microM, D 2): 71.53 pg/c/d
- Titer ([1]; 5 microM, D 3): 0.85 g/L
- VCD ([1]; 5 microM, D 3): 10.05 e6/mL
- Viability ([1]; 5 microM, D 3): 79.09%
- qP ([1]; 5 microM, D 3): 84.92 pg/c/d
- Titer ([1]; 5 microM, D 4): 0.98 g/L
- VCD ([1]; 5 microM, D 4): 10.39 e6/mL
- Viability ([1]; 5 microM, D 4): 72.71%
- qP ([1]; 5 microM, D 4): 94.68 pg/c/d
- Titer ([1]; 10 microM, D 1): 0.48 g/L
- VCD ([1]; 10 microM, D 1): 9.99 e6/mL
- Viability ([1]; 10 microM, D 1): 94.71%
- qP ([1]; 10 microM, D 1): 47.72 pg/c/d
- Titer ([1]; 10 microM, D 2): 0.66 g/L
- VCD ([1]; 10 microM, D 2): 9.29 e6/mL
- Viability ([1]; 10 microM, D 2): 83.23%
- qP ([1]; 10 microM, D 2): 71.04 pg/c/d
- Titer ([1]; 10 microM, D 3): 0.83 g/L
- VCD ([1]; 10 microM, D 3): 9.55 e6/mL
- Viability ([1]; 10 microM, D 3): 76.37%
- qP ([1]; 10 microM, D 3): 87.30 pg/c/d
- Titer ([1]; 10 microM, D 4): 0.96 g/L
- VCD ([1]; 10 microM, D 4): 10.29 e6/mL
- Viability ([1]; 10 microM, D 4): 72.16%
- qP ([1]; 10 microM, D 4): 92.97 pg/c/d
- effect on viability [1]: greater (but still modest) decreases in viability
- growth arrest [1]: more sustained growth arrest
